From patent US20120171123A1, “USES AND COMPOSITIONS FOR TREATMENT OF RHEUMATOID ARTHRITIS” (priority 2006, published 2012)
Marks after values point to notes of the source that are not given here.

Tests used:
[1] = tested on: MTX-naïve adult patients with active, early RA (<3 years); assay: Study J: radiographic progression (TSS, joint erosion, joint space narrowing); format: in vivo, human
Description: The co-primary endpoints, comparing MTX alone with the combination at 1 year, were the ACR50 response (using non-responder imputation), and inhibition of radiographic progression, as measured by change in total Sharp score (TSS). In this study, the term “Major Clinical Response” (MCR) meant a continuous ACR70 response for 6 or more consecutive months.
At 1 and 2 years, the American College of Rheumatology (ACR) responses (ACR20, ACR50, and ACR70), the Disease Activity Score 28 (DAS28), and the change (Δ) in Total Sharp Score (TSS) were determined for all patients. Results were analyzed for the intention-to-treat (ITT) population using imputation for missing data. Clinical remission was defined as DAS28<2.6. The mean ΔTSS values at 1 year and 2 years (N=791) were determined for patients in each ACR response category (ACR20/50/70) and for patients with DAS28<2.6
Radiographic progression was measured by Total Sharp Score (TSS) at baseline, and 1 and 2 years in the intention to treat population (ITT) using imputation for missing data. In this analysis, patients were divided into 1 of 2 categories by disease duration at baseline: <6 months (Group 1) or 6 months to 3 years (Group 2). Mean changes in TSS were reported for both groups by each of the 3 treatment arms from baseline to Year 1 and from Year 1 to Year 2.
Radiographic progression was assessed by mean change from baseline in Total Sharp Score (TSS) and stratified into those with (ΔTSS>0.5) and without (Δ≦TSS 0.5). Patients were categorized as either having radiographic progression at 1 year (ΔTSS>0.5) or not (Δ≦TSS 0.5). A logistic regression model was used to identify predictors of radiographic disease progression by testing several baseline characteristics, including age, disease duration, RF status, TJC, SJC, joint erosions, and CRP. For analyses of CRP, patients were categorized as normal (CRP≦0.8 mg/dL) or abnormal (CRP>0.8 mg/dL).
Mean change from baseline in Total Sharp Score (TSS) was measured at 6 months, 1 year, and 2 years in the intention-to-treat (ITT) population using imputation for missing data. Patients were classified as having radiographic progression (mean change in TSS>0.5) or without radiographic progression (ΔTSS≦0.5). Patients with inadequate data were excluded from this analysis.
Patients in the Ada+MTX and the MTX arms were classified according to level of clinical response (non-responder (<ACR20), ACR20, ACR50, or ACR70) and radiographic progression (Yes or No (ΔTSS≦0.5)). The ΔTSS was analyzed overall, and for ACR subgroups. This included determination of mean ΔTSS and probability plots.
Study J was a 2-year, double-blind, active comparator-controlled, Phase III study. […] For each patient, radiographs of hands and feet were taken at baseline, 6 months, 1 year and 2 years and evaluated for joint erosions (JE) and joint space narrowing (JSN) by 2 blinded radiologists. Changes from baseline in the modified total Sharp score (TSS, 0-398) were calculated for patients in each treatment arm. Cumulative probability plots were generated by estimating the probability of exceeding a given change in TSS. For each treatment, we calculated the percentages of patients whose ΔTSS exceeded specified thresholds, and the probability of having a given ΔTSS (using cumulative probability plots). For each of 4 cumulative probability ranges, 0-10%, 10-50%, 50-90% and 90-100% (higher numbered ranges=greater ΔTSS), mean ΔTSS values were calculated. In previous reports, Study J radiographic analyses employed linear imputation. In the present analysis, only observed data were employed, with no imputation.

[2] = tested on: MTX-naïve adult patients with active, early RA (<3 years); assay: Study J: subject disposition and withdrawals; settings: 2 years
[3] = disease duration 6 months-3 years (n=333)

adalimumab: human anti-TNF mAb (HUMIRA, Abbott Laboratories), described in U.S. Pat. No. 6,090,382 as D2E7
Mean change in TSS ([1]; 1 year, ACR20 responders): 2.3 | mean change in JE score ([1]; 1 year, ACR20 responders): 1.0 | mean change in JSN ([1]; 1 year, ACR20 responders): 1.3 | Mean change in TSS ([1]; 1 year, ACR50 responders): 1.7 | mean change in JE score ([1]; 1 year, ACR50 responders): 0.8 | mean change in JSN ([1]; 1 year, ACR50 responders): 0.9 | Mean change in TSS ([1]; 1 year, ACR70 responders): 1.1 | mean change in JE score ([1]; 1 year, ACR70 responders): 0.5 | mean change in JSN ([1]; 1 year, ACR70 responders): 0.6 | patients with no radiographic progression ([1]; 1 year, abnormal baseline CRP normalized at 1 year): 53% | patients with no radiographic progression ([1]; 1 year, elevated CRP at both baseline and 1 year): 32% | Mean change in TSS ([1]; 1 year, patients with DAS28<2.6): −0.1 | % of patients with >4 change TSS ([1]; 2 years): 30.7% | % of patients with >10 change TSS ([1]; 2 years): 17.5% | % of patients with >20 change TSS ([1]; 2 years): 5.4% | patients with no radiographic progression (change in TSS ≦0.5) ([1]; 2 years): 45% | mean change in JE score ([1]; 2 years, ACR20 responders): 2.3 | mean change in JSN ([1]; 2 years, ACR20 responders): 2.2 | mean change in TSS from baseline ([1]; 2 years, ACR20 responders): 4.5 | mean change in JE score ([1]; 2 years, ACR50 responders): 1.5 | mean change in JSN ([1]; 2 years, ACR50 responders): 1.9 | mean change in TSS from baseline ([1]; 2 years, ACR50 responders): 3.4 | mean change in JE score ([1]; 2 years, ACR70 responders): 1.6 | mean change in JSN ([1]; 2 years, ACR70 responders): 1.9 | mean change in TSS from baseline ([1]; 2 years, ACR70 responders): 3.5 | Mean change in TSS ([1]; 2 years, patients with DAS28<2.6): 1.3 | Mean change in TSS ([1]; 2 years, all points (0-100), observed data): 4.7 | Mean change in TSS ([1]; 2 years, cumulative probability range 0-10): −2.8 | Mean change in TSS ([1]; 2 years, cumulative probability range 50-90): 4.7^† | Mean change in TSS ([1]; 2 years, cumulative probability range 90-100): 28.9 | % of patients with >4 change TSS ([1]; 6 months): 0.5% | % of patients with >10 change TSS ([1]; 6 months): 6.5% | % of patients with >20 change TSS ([1]; 6 months): 10.6% | patients with no radiographic progression ([1]; 6 months): 63% | Mean change in TSS ([1]; 6 months, all points (0-100), observed data): 2.1* | Mean change in TSS ([1]; 6 months, cumulative probability range 0-10): −3.4 | Mean change in TSS ([1]; 6 months, cumulative probability range 90-100): 13.6 | Patients with No Radiographic Progression at 1 Year ([1]; CRP (BL and Year 1) Abnormal to Normal): 53%* | Patients with No Radiographic Progression at 1 Year ([1]; CRP (BL and Year 1) Always Normal): 91% | Patients with No Radiographic Progression at 1 Year ([1]; CRP (BL and Year 1) Never Normal): 32% | No Progression at Month 6, % ([1]; Study J): 63% | No Progression at Month 6, patients/total ([1]; Study J): 172/271 | No Progression at Month 6 and Year 2, % ([1]; Study J): 63% | No Progression at Month 6 and Year 2, patients/Month-6 non-progressors ([1]; Study J): 109/172 | Yr-2 Non-P, % ([1]; among Mo-6 Non-Progressors): 63% | Yr-2 Non-P, number of patients ([1]; among Mo-6 Non-Progressors): 109 | Yr-2 Prog, % ([1]; among Mo-6 Non-Progressors): 37% | Yr-2 Prog, number of patients ([1]; among Mo-6 Non-Progressors): 63 | Yr-2 Non-P, % ([1]; among Mo-6 Progressors): 13 (13%) | Yr-2 Non-P, number of patients ([1]; among Mo-6 Progressors): 13 (13%) | Yr-2 Prog, % ([1]; among Mo-6 Progressors): 87% | Yr-2 Prog, number of patients ([1]; among Mo-6 Progressors): 86 | mean change TSS during year 1 [1, 3]: 2.4 sharp score units | mean change TSS during year 2 [1, 3]: 3.2 sharp score units | mean change TSS during year 1 ([1]; disease duration <6 months): 3.4 sharp score units | mean change TSS during year 2 ([1]; disease duration <6 months): 2.1 sharp score units | Mo-6 Non-Progressors, % of arm ([1]; no progression = ΔTSS≦0.5): 63% | Mo-6 Non-Progressors, number of patients ([1]; no progression = ΔTSS≦0.5): 172 | patients with no progression at year 2 ([1]; no progression at month 6): 63% | Mo-6 Progressors, % of arm ([1]; progression = ΔTSS>0.5): 37% | Mo-6 Progressors, number of patients ([1]; progression = ΔTSS>0.5): 99 | patients with no progression at year 2 ([1]; progression at month 6): 13% | mean change from baseline in TSS ([1]; week 26, ITT with imputation): 2.1** | withdrawn, reason lack of efficacy [2]: 19%
